Measured values taken from the supplement of paper PMC13380429.

Assays:
[1] = test system: A549-ACE2; test: phospholipidosis EC50; higher = less potent phospholipidosis inducer
[2] = test system: A549-ACE2 infected with SARS-CoV-2; test: cell count relative to DMSO; higher = less toxic; conditions: 24 h
[3] = test system: U2OS; test: cell viability relative to DMSO; higher = less toxic; conditions: 72 h
[4] = test system: Caco-2; test: as above; conditions: 72 h
[5] = test system: Vero E6; test: as above; conditions: 72 h
[6] = test system: HepG2; test: as above; conditions: 72 h
[7] = test system: Calu-3; test: as above; conditions: 72 h
[8] = test system: A549-ACE2; test: drug-induced phospholipidosis relative to tamoxifen; higher = more phospholipidosis
[9] = test system: U2OS; test: drug sensitivity score (DSS) for viability; higher = more toxic; extreme values may be limits of the assay; conditions: 72 h
[10] = test system: Caco-2; test: as above; conditions: 72 h
[11] = test system: Vero E6; test: as above; conditions: 72 h
[12] = test system: HepG2; test: as above; conditions: 72 h
[13] = test system: Calu-3; test: as above; conditions: 72 h
[14] = test system: A549-ACE2 infected with SARS-CoV-2; test: SARS-CoV-2 infection rate relative to DMSO; higher = more infection; conditions: 24 h
[15] = test system: Vero E6; test: relative viability EC50 (midpoint between 100% and the lowest measured viability); higher = less toxic; conditions: 72 h
[16] = test system: Calu-3; test: as above; conditions: 72 h
[17] = test system: A549-ACE2 infected with SARS-CoV-2; test: morphology score (similarity to uninfected cells); higher = more like uninfected cells; conditions: 24 h
[18] = test system: U2OS; test: relative viability EC50 (midpoint between 100% and the lowest measured viability); higher = less toxic; conditions: 72 h
[19] = test system: Caco-2; test: as above; conditions: 72 h
[20] = test system: HepG2; test: as above; conditions: 72 h

Nc1ncccc1-c1nc2ccc(-c3ccccc3)nc2n1-c1ccc(C2(N)CCC2)cc1 [ARQ-092]
Conditions | SARS-CoV-2 infection rate [%] | cell count [%] | cell viability [%] | morphology score | phospholipidosis EC50 [nM]
[1], 24 h | – | – | – | – | 3220
[1], 48 h | – | – | – | – | 1250
[2], 0.3 µM | – | 96 | – | – | –
[2], 3 µM | – | 98 | – | – | –
[2], 10 µM | – | 94 | – | – | –
[2], 30 µM | – | 46 | – | – | –
[3], 1 nM | – | – | 99.8 | – | –
[3], 10 nM | – | – | 99.4 | – | –
[3], 100 nM | – | – | 102 | – | –
[3], 1000 nM | – | – | 91.9 | – | –
[3], 10000 nM | – | – | 68.2 | – | –
[4], 1 nM | – | – | 94.7 | – | –
[4], 10 nM | – | – | 97.9 | – | –
[4], 100 nM | – | – | 87.4 | – | –
[4], 1000 nM | – | – | 68 | – | –
[4], 10000 nM | – | – | 52.8 | – | –
[5], 1 nM | – | – | 95.1 | – | –
[5], 10 nM | – | – | 102 | – | –
[5], 100 nM | – | – | 86.5 | – | –
[5], 1000 nM | – | – | 82.2 | – | –
[5], 10000 nM | – | – | 84.7 | – | –
[6], 1 nM | – | – | 102 | – | –
[6], 10 nM | – | – | 95.2 | – | –
[6], 100 nM | – | – | 90.4 | – | –
[6], 1000 nM | – | – | 72.4 | – | –
[6], 10000 nM | – | – | 51.4 | – | –
[7], 1 nM | – | – | 98.3 | – | –
[7], 10 nM | – | – | 108 | – | –
[7], 100 nM | – | – | 95.7 | – | –
[7], 1000 nM | – | – | 76.3 | – | –
[7], 10000 nM | – | – | 8.8 | – | –
[14], 0.3 µM | 107 | – | – | – | –
[14], 3 µM | 51 | – | – | – | –
[14], 10 µM | 25 | – | – | – | –
[14], 30 µM | 78 | – | – | – | –
[17], 0.3 µM | – | – | – | -0.1 | –
[17], 3 µM | – | – | – | 0.72 | –
[17], 10 µM | – | – | – | 0.54 | –
[17], 30 µM | – | – | – | -0.21 | –

drug-induced phospholipidosis [%], [8]
Conditions | 0.3 µM | 0.833333 µM | 3.33333 µM | 6.66667 µM | 10 µM | 30 µM
24 h | 1.77 | 12 | 89.4 | 198 | 175 | 50.3
48 h | 3.37 | 9.82 | 86.6 | – | 138 | 36.8
72 h | 2.32 | 7.77 | – | – | – | –

Conditions | drug sensitivity score | relative viability EC50 [nM]
[9] | 2.7 | –
[10] | 7.1 | –
[11] | 3.3 | –
[12] | 6.1 | –
[13] | 8.7 | –
[15] | – | > 10000
[16] | – | 1520

Cc1ccc(NC(=O)Nc2cc(C(F)(F)F)ccc2F)cc1Nc1ccc2c(c1)NC(=O)/C2=C\c1ccc[nH]1 [GNF-5837]
Conditions | SARS-CoV-2 infection rate [%] | cell count [%] | cell viability [%] | morphology score | phospholipidosis EC50 [nM]
[1], 24 h | – | – | – | – | 2170
[1], 48 h | – | – | – | – | 2340
[1], 72 h | – | – | – | – | 2600
[2], 0.3 µM | – | 100 | – | – | –
[2], 3 µM | – | 105 | – | – | –
[2], 10 µM | – | 115 | – | – | –
[2], 30 µM | – | 96 | – | – | –
[3], 1 nM | – | – | 99.6 | – | –
[3], 10 nM | – | – | 97.2 | – | –
[3], 100 nM | – | – | 97.2 | – | –
[3], 1000 nM | – | – | 98.2 | – | –
[3], 10000 nM | – | – | 85.5 | – | –
[4], 1 nM | – | – | 105 | – | –
[4], 10 nM | – | – | 97.6 | – | –
[4], 100 nM | – | – | 103 | – | –
[4], 1000 nM | – | – | 94.5 | – | –
[4], 10000 nM | – | – | 75.7 | – | –
[5], 1 nM | – | – | 107 | – | –
[5], 10 nM | – | – | 107 | – | –
[5], 100 nM | – | – | 97 | – | –
[5], 1000 nM | – | – | 106 | – | –
[5], 10000 nM | – | – | 83.5 | – | –
[6], 1 nM | – | – | 92.5 | – | –
[6], 10 nM | – | – | 98.7 | – | –
[6], 100 nM | – | – | 98.5 | – | –
[6], 1000 nM | – | – | 103 | – | –
[6], 10000 nM | – | – | 39 | – | –
[7], 1 nM | – | – | 97.9 | – | –
[7], 10 nM | – | – | 96.4 | – | –
[7], 100 nM | – | – | 100 | – | –
[7], 1000 nM | – | – | 109 | – | –
[7], 10000 nM | – | – | 96.9 | – | –
[14], 0.3 µM | 103 | – | – | – | –
[14], 3 µM | 85 | – | – | – | –
[14], 10 µM | 22 | – | – | – | –
[14], 30 µM | 44 | – | – | – | –
[17], 0.3 µM | – | – | – | -0.15 | –
[17], 3 µM | – | – | – | 0.36 | –
[17], 10 µM | – | – | – | 0.82 | –
[17], 30 µM | – | – | – | 0.59 | –

drug-induced phospholipidosis [%], [8]
Conditions | 0.3 µM | 0.833333 µM | 3.33333 µM | 6.66667 µM | 10 µM | 30 µM
24 h | 4.96 | 25.4 | 116 | 132 | 160 | 164
48 h | 4.94 | 9.4 | 80.5 | 95.6 | 96.1 | 120
72 h | 3.67 | 5.1 | 59.1 | 70.1 | 78.2 | 91.4

Conditions | drug sensitivity score | relative viability EC50 [nM]
[9] | 0.4 | –
[10] | 1.7 | –
[11] | 0.2 | –
[12] | 3 | –
[13] | 0 | –
[15] | – | > 10000
[16] | – | > 10000
[18] | – | > 10000
[19] | – | > 10000
[20] | – | 3460
